Measured values taken from ChEMBL document CHEMBL1156468, “Crystal structures of Saccharomyces cerevisiae N-myristoyltransferase with bound myristoyl-CoA and inhibitors reveal the functional roles of the N-terminal region” (J Biol Chem, 2007).

What was measured:
Saccharomyces cerevisiae [1] = assay: Activity of Saccharomyces cerevisiae NMT NMT delta1-30 mutant assessed as production of coenzyme A after 1 hr
Saccharomyces cerevisiae [2] = assay: Ratio of kcat to Km for Saccharomyces cerevisiae NMT delta1-30 mutant
Saccharomyces cerevisiae [3] = assay: Ratio of kcat to Km for Saccharomyces cerevisiae NMT delta1-40 mutant
Saccharomyces cerevisiae [4] = assay: Activity of Saccharomyces cerevisiae NMT D22K/D23K mutant assessed as production of coenzyme A after 1 hr
Saccharomyces cerevisiae [5] = assay: Ratio of kcat to Km for Saccharomyces cerevisiae NMT delta1-20 mutant
Saccharomyces cerevisiae [6] = assay: Activity of Saccharomyces cerevisiae NMT NMT delta1-40 mutant assessed as production of coenzyme A after 1 hr
Saccharomyces cerevisiae [7] = assay: Ratio of kcat to Km for Saccharomyces cerevisiae NMT D22K/D23K mutant
Saccharomyces cerevisiae [8] = assay: Activity of Saccharomyces cerevisiae NMT NMT delta1-20 mutant assessed as production of coenzyme A after 1 hr
[9] = substrate: CC(C)C[C@H](NC(=O)CN)C(=O)N[C@@H](Cc1ccccc1)C(=O)N[C@@H](C)C(=O)N[C@@H](CO)C(=O)N[C@@H](CCCCN)C(=O)N[C@@H](CC(C)C)C(=O)N[C@@H](Cc1ccccc1)C(=O)O; assay: Ratio of kcat to Km for Saccharomyces cerevisiae NMT D106A/D108A mutant
[10] = substrate: CC(C)C[C@H](NC(=O)CN)C(=O)N[C@@H](Cc1ccccc1)C(=O)N[C@@H](C)C(=O)N[C@@H](CO)C(=O)N[C@@H](CCCCN)C(=O)N[C@@H](CC(C)C)C(=O)N[C@@H](Cc1ccccc1)C(=O)O; assay: Activity of Saccharomyces cerevisiae NMT D106A/D108A mutant assessed as production of coenzyme A after 1 hr
[11] = substrate: CC(C)C[C@H](NC(=O)CN)C(=O)N[C@@H](Cc1ccccc1)C(=O)N[C@@H](C)C(=O)N[C@@H](CO)C(=O)N[C@@H](CCCCN)C(=O)N[C@@H](CC(C)C)C(=O)N[C@@H](Cc1ccccc1)C(=O)O; assay: Ratio of kcat to Km for Saccharomyces cerevisiae NMT D22A/D23A mutant
[12] = substrate: CC(C)C[C@H](NC(=O)CN)C(=O)N[C@@H](Cc1ccccc1)C(=O)N[C@@H](C)C(=O)N[C@@H](CO)C(=O)N[C@@H](CCCCN)C(=O)N[C@@H](CC(C)C)C(=O)N[C@@H](Cc1ccccc1)C(=O)O; assay: Activity of Saccharomyces cerevisiae NMT D22A/D23A mutant assessed as production of coenzyme A after 1 hr

Q: Which Km (Saccharomyces cerevisiae [1]) does the source give for H-GLFASKLF-OH here?
A: Its Km is 159 µM.

Q: What about the kcat (Saccharomyces cerevisiae [1]) of the same molecule?
A: Its kcat is 3.85 s⁻¹.

Q: And the kcat/Km (Saccharomyces cerevisiae [2])?
A: Its kcat/Km is 2.43 ×10⁴ /M/s.

Q: And the kcat/Km (Saccharomyces cerevisiae [3])?
A: Its kcat/Km is 2.48 ×10⁴ /M/s.

Q: What about the Km (Saccharomyces cerevisiae [4]) of the same molecule?
A: The Km was 150 µM.

Q: And the kcat (Saccharomyces cerevisiae [4])?
A: Its kcat is 4.73 s⁻¹.

Q: And the kcat/Km (Saccharomyces cerevisiae [5])?
A: Its kcat/Km is 1.29 ×10⁵ /M/s.

Q: What about the Km (Saccharomyces cerevisiae [6]) of the same molecule?
A: Its Km is 162 µM.

Q: And the kcat (Saccharomyces cerevisiae [6])?
A: The kcat was 4.03 s⁻¹.

Q: What about the kcat/Km (Saccharomyces cerevisiae [7]) of the same molecule?
A: The kcat/Km was 3.16 ×10⁴ /M/s.

Q: What about the Km (Saccharomyces cerevisiae [8]) of the same molecule?
A: The Km was 27.7 µM.

Q: And the kcat (Saccharomyces cerevisiae [8])?
A: The kcat was 3.58 s⁻¹.

B1: Glycylpeptide N-tetradecanoyltransferase (Saccharomyces cerevisiae S288c), P14743 D106A,D108A (protein)
chain: MSEEDKAKKLENLLKLLQLNNDDTSKFTQEQKKAMKDHKFWRTQPVKDFDEKVVEEGPIDKPKTPEDISDKPLPLLSSFEWCSIDVDNKKQLEDVFVLLNENYVEARAAGFRFNYTKEFFNWALKSPGWKKDWHIGVRVKETQKLVAFISAIPVTLGVRGKQVPSVEINFLCVHKQLRSKRLTPVLIKEITRRVNKCDIWHALYTAGIVLPAPVSTCRYTHRPLNWKKLYEVDFTGLPDGHTEEDMIAENALPAKTKTAGLRKLKKEDIDQVFELFKRYQSRFELIQIFTKEEFEHNFIGEESLPLDKQVIFSYVVEQPDGKITDFFSFYSLPFTILNNTKYKDLGIGYLYYYATDADFQFKDRFDPKATKALKTRLCELIYDACILAKNANMDVFNALTSQDNTLFLDDLKFGPGDGFLNFYLFNYRAKPITGGLNPDNSNDIKRRSNVGVVML
Q: What does the source list for B1?
A: kcat/Km [9]: 6.62 ×10⁴ /M/s; Km [10]: 38.5 µM; kcat [10]: 2.55 s⁻¹

B2: Glycylpeptide N-tetradecanoyltransferase (Saccharomyces cerevisiae S288c), P14743 D22A,D23A (protein)
chain: MSEEDKAKKLENLLKLLQLNNAATSKFTQEQKKAMKDHKFWRTQPVKDFDEKVVEEGPIDKPKTPEDISDKPLPLLSSFEWCSIDVDNKKQLEDVFVLLNENYVEDRDAGFRFNYTKEFFNWALKSPGWKKDWHIGVRVKETQKLVAFISAIPVTLGVRGKQVPSVEINFLCVHKQLRSKRLTPVLIKEITRRVNKCDIWHALYTAGIVLPAPVSTCRYTHRPLNWKKLYEVDFTGLPDGHTEEDMIAENALPAKTKTAGLRKLKKEDIDQVFELFKRYQSRFELIQIFTKEEFEHNFIGEESLPLDKQVIFSYVVEQPDGKITDFFSFYSLPFTILNNTKYKDLGIGYLYYYATDADFQFKDRFDPKATKALKTRLCELIYDACILAKNANMDVFNALTSQDNTLFLDDLKFGPGDGFLNFYLFNYRAKPITGGLNPDNSNDIKRRSNVGVVML
Q: With B2 as the molecule, how does the kcat/Km [11] read?
A: The kcat/Km was 4.15 ×10⁴ /M/s.

Q: And the Km [12]?
A: Its Km is 92.4 µM.

Q: What about the kcat [12] of the same molecule?
A: The kcat was 3.83 s⁻¹.
